Test results from article PMC4051630, “A Comparison of Protein Kinases Inhibitor Screening Methods Using Both Enzymatic Activity and Binding Affinity Determination” (PLoS ONE, 2014).

How the values were obtained:
FES Catalytic Domain+SH2 [1] = molecular target: T1, FES Catalytic Domain+SH2 (Homo sapiens, UniProt P07332); assay: Caliper mobility shift kinase activity assay; format: biochemical; conditions: FES CD+SH2; read-out: ATP Km
T1 construct: for 8, we also made a longer version containing one or more additional domains; His-tag; made in house; host or cells: Escherichia coli

[2] = molecular target: T2, SRC Catalytic Domain+SH2+SH3 (Homo sapiens, UniProt P12931); conditions: read-out: ATP Km; SRC CD+SH2/3
[3] = molecular target: T3, STK3 Catalytic domain+SARAH (Homo sapiens, UniProt Q13188); assay: Caliper mobility shift kinase activity assay; format: biochemical; conditions: STK3 CD+SARAH; read-out: ATP Km
T3 construct: for 8, we also made a longer version containing one or more additional domains; His-tag; made in house; host or cells: Escherichia coli
T3 sequence (Q13188 1-491): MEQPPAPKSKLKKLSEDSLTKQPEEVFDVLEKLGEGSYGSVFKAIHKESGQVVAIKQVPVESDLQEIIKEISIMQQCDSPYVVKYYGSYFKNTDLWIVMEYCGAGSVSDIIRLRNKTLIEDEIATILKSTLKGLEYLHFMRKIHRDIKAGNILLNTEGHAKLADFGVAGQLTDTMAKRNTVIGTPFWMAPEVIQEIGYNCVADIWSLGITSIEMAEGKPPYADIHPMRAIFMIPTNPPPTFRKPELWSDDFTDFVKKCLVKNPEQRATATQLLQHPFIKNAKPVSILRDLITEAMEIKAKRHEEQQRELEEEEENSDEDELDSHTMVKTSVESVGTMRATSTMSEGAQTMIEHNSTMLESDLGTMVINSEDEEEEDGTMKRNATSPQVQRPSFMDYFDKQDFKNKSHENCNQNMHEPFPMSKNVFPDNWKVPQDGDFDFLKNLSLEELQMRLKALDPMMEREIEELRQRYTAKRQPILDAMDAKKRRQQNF

DMPK Catalytic Domain [4] = molecular target: T4, DMPK Catalytic Domain (Homo sapiens, UniProt Q09013); assay: Caliper mobility shift kinase activity assay; format: biochemical; conditions: DMPK CD; read-out: ATP Km
T4 construct: For all of them, we expressed and purified the catalytic domain separately; His-tag; made in house; host or cells: Escherichia coli
T4 sequence (Q09013 71-339 limits assumed): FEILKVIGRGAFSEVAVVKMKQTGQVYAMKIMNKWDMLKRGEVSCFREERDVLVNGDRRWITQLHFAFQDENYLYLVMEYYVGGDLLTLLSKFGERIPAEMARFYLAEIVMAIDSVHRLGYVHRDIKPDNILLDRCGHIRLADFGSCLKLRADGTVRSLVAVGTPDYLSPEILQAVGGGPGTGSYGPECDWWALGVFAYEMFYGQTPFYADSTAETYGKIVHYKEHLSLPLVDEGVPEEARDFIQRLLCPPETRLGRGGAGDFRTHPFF

STK3 Catalytic Domain [5] = molecular target: T5, STK3 Catalytic Domain (Homo sapiens, UniProt Q13188); assay: Caliper mobility shift kinase activity assay; format: biochemical; conditions: STK3 CD; read-out: ATP Km
T5 construct: For all of them, we expressed and purified the catalytic domain separately; His-tag; made in house; host or cells: Escherichia coli
T5 sequence (Q13188 27-278 limits assumed): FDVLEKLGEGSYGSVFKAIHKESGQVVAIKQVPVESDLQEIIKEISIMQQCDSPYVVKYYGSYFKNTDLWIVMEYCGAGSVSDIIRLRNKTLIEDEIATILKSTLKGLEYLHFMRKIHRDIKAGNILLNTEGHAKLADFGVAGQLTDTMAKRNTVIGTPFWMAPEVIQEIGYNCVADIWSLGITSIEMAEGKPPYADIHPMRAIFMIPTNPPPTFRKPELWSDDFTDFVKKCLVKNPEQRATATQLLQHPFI

CDK2 + Cyclin E [6] = molecular target: T6, CDK2 + Cyclin E (Homo sapiens, UniProt P24941); assay: Caliper mobility shift kinase activity assay; format: biochemical; conditions: CDK2 with CCNE1 (Cyclin E); read-out: ATP Km
T6 construct: CDK2 (P24941); 1–299; His-tag; made in house; host or cells: Escherichia coli

PAK7 Catalytic Domain [7] = molecular target: T7, PAK7 Catalytic Domain (Homo sapiens, UniProt Q9P286); assay: Caliper mobility shift kinase activity assay; format: biochemical; conditions: PAK7 CD; read-out: ATP Km
T7 construct: For all of them, we expressed and purified the catalytic domain separately; His-tag; made in house; host or cells: Escherichia coli

FES Catalytic Domain [8] = molecular target: T8, FES Catalytic Domain (Homo sapiens, UniProt P07332); assay: Caliper mobility shift kinase activity assay; format: biochemical; conditions: FES CD; read-out: ATP Km
T8 construct: For all of them, we expressed and purified the catalytic domain separately; His-tag; made in house; host or cells: Escherichia coli

[9] = molecular target: T9, PAK4 Catalytic Domain+PBD (Homo sapiens, UniProt O96013); assay: Caliper mobility shift kinase activity assay; format: biochemical; conditions: PAK4 CD+PBD; read-out: ATP Km
T9 construct: for 8, we also made a longer version containing one or more additional domains; His-tag; made in house; host or cells: Escherichia coli
Method: (§1) This ensures comparability of compound potency between the kinases. […] […].
(§2) […]. […] […].
(§3) IC50 was determined once for each compound-kinase combination.

PAK4 Catalytic Domain [10] = molecular target: T10, PAK4 Catalytic Domain (Homo sapiens, UniProt O96013); assay: Caliper mobility shift kinase activity assay; format: biochemical; conditions: PAK4 CD; read-out: ATP Km
T10 construct: For all of them, we expressed and purified the catalytic domain separately; His-tag; made in house; host or cells: Escherichia coli
Method: as §1, §2, §3

CHK2 Catalytic Domain [11] = molecular target: T11, CHK2 Catalytic Domain (Homo sapiens, UniProt O96017); assay: Caliper mobility shift kinase activity assay; format: biochemical; conditions: CHK2 CD; read-out: ATP Km
T11 construct: For all of them, we expressed and purified the catalytic domain separately; His-tag; made in house; host or cells: Escherichia coli

AKT3 Catalytic Domain [12] = molecular target: T12, AKT3 Catalytic Domain (Homo sapiens, UniProt Q9Y243); assay: Caliper mobility shift kinase activity assay; format: biochemical; conditions: AKT3 CD (122–479); read-out: ATP Km
T12 construct: AKT3 (Q9Y243); CD; His-tag; made in house; host or cells: Escherichia coli

CDK2 + Cyclin A [13] = molecular target: T13, CDK2 + Cyclin A (Homo sapiens, UniProt P24941); assay: Caliper mobility shift kinase activity assay; format: biochemical; conditions: CDK2 with CCNA2 (Cyclin A); read-out: ATP Km
T13 construct: CDK2 (P24941); 1–299; His-tag; made in house; host or cells: Escherichia coli

SRC Catalytic Domain [14] = molecular target: T14, SRC Catalytic Domain (Homo sapiens, UniProt P12931); conditions: read-out: ATP Km; SRC CD
CHK2 Catalytic Domain [15] = molecular target: T11, CHK2 Catalytic Domain; assay: Differential Scanning Fluorimetry (DSF) Tm shift; format: binding; conditions: 2 µM protein, 10 µM inhibitor, average of 3 experiments, each in duplicate
CDK2 + Cyclin E [16] = molecular target: T6, CDK2 + Cyclin E; assay: Differential Scanning Fluorimetry (DSF) Tm shift; format: binding; conditions: CDK2 + Cyclin E; 2 µM protein, 10 µM inhibitor; average of 3 experiments, each in duplicate
PAK4 Catalytic Domain [17] = molecular target: T10, PAK4 Catalytic Domain; assay: Differential Scanning Fluorimetry (DSF) Tm shift; format: binding; conditions: 2 µM protein, 10 µM inhibitor, average of 3 experiments, each in duplicate
AKT3 Catalytic Domain [18] = molecular target: T12, AKT3 Catalytic Domain; assay: Differential Scanning Fluorimetry (DSF) Tm shift; format: binding; conditions: 2 µM protein, 10 µM inhibitor, average of 3 experiments, each in duplicate
[19] = molecular target: T3, STK3 Catalytic domain+SARAH; assay: Differential Scanning Fluorimetry (DSF) Tm shift; format: binding; conditions: 2 µM protein, 10 µM inhibitor, average of 3 experiments, each in duplicate
DMPK Catalytic Domain [20] = molecular target: T4, DMPK Catalytic Domain; assay: Differential Scanning Fluorimetry (DSF) Tm shift; format: binding; conditions: 2 µM protein, 10 µM inhibitor, average of 3 experiments, each in duplicate
CDK2 + Cyclin A [21] = molecular target: T13, CDK2 + Cyclin A; assay: Differential Scanning Fluorimetry (DSF) Tm shift; format: binding; conditions: CDK2 + Cyclin A; 2 µM protein, 10 µM inhibitor; average of 3 experiments, each in duplicate
FES Catalytic Domain+SH2 [22] = molecular target: T1, FES Catalytic Domain+SH2; assay: Differential Scanning Fluorimetry (DSF) Tm shift; format: binding; conditions: 2 µM protein, 10 µM inhibitor, average of 3 experiments, each in duplicate
SRC Catalytic Domain [23] = molecular target: T14, SRC Catalytic Domain; assay: Differential Scanning Fluorimetry (DSF) Tm shift; format: binding; design: For all of them, we expressed and purified the catalytic domain separately; His-tag; made in house; host or cells: Escherichia coli; conditions: 2 µM protein, 10 µM inhibitor, average of 3 experiments, each in duplicate
STK3 Catalytic Domain [24] = molecular target: T5, STK3 Catalytic Domain; assay: Differential Scanning Fluorimetry (DSF) Tm shift; format: binding; conditions: 2 µM protein, 10 µM inhibitor, average of 3 experiments, each in duplicate
PAK7 Catalytic Domain [25] = molecular target: T7, PAK7 Catalytic Domain; assay: Differential Scanning Fluorimetry (DSF) Tm shift; format: binding; conditions: 2 µM protein, 10 µM inhibitor, average of 3 experiments, each in duplicate
FAK2 Catalytic Domain = molecular target: T15, FAK2 Catalytic Domain (Homo sapiens, UniProt Q14289); assay: Differential Scanning Fluorimetry (DSF) Tm shift; format: binding; conditions: 2 µM protein, 10 µM inhibitor, average of 3 experiments, each in duplicate
T15 construct: For all of them, we expressed and purified the catalytic domain separately; His-tag; made in house; host or cells: Escherichia coli

[26] = molecular target: T2, SRC Catalytic Domain+SH2+SH3; assay: Differential Scanning Fluorimetry (DSF) Tm shift; format: binding; conditions: 2 µM protein, 10 µM inhibitor, average of 3 experiments, each in duplicate
FES Catalytic Domain [27] = molecular target: T8, FES Catalytic Domain; assay: Differential Scanning Fluorimetry (DSF) Tm shift; format: binding; conditions: 2 µM protein, 10 µM inhibitor, average of 3 experiments, each in duplicate
[28] = molecular target: T9, PAK4 Catalytic Domain+PBD; assay: Differential Scanning Fluorimetry (DSF) Tm shift; format: binding; conditions: 2 µM protein, 10 µM inhibitor, average of 3 experiments, each in duplicate

T10 sequence (O96013 321-572 limits assumed): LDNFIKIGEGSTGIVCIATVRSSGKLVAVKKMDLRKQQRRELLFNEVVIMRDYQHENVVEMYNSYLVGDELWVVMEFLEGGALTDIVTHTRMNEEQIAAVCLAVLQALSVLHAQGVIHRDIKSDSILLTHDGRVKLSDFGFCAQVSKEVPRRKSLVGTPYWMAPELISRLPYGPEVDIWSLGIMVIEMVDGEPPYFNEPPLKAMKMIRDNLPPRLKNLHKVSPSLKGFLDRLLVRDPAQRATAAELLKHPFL
T1 sequence (P07332 448-822 limits assumed): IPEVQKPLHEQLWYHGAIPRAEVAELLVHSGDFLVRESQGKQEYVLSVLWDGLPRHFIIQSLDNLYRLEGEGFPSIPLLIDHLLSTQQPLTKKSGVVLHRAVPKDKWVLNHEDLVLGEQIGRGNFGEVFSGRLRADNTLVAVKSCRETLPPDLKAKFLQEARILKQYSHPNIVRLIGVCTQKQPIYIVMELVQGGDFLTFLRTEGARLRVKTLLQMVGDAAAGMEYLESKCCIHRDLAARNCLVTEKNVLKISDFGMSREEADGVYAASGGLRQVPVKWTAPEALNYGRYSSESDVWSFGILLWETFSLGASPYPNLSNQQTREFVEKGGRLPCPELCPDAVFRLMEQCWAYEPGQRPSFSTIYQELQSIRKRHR
T9 sequence (O96013 whole entry, the tested form may be a part): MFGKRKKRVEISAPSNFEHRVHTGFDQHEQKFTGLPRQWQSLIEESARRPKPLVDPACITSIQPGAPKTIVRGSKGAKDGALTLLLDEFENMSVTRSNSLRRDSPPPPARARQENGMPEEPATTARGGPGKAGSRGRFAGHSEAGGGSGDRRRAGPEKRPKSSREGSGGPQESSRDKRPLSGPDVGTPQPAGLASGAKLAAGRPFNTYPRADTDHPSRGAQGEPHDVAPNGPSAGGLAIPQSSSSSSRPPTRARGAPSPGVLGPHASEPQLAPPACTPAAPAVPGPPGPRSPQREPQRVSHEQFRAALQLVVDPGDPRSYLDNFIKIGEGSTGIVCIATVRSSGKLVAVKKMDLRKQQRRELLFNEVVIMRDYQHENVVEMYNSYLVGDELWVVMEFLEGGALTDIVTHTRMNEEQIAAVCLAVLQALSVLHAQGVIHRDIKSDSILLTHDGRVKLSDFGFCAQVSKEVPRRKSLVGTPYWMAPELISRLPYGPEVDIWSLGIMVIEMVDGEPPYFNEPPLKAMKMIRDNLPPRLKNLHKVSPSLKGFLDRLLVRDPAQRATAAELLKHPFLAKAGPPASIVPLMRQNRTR
T8 sequence (P07332 561-822 limits assumed): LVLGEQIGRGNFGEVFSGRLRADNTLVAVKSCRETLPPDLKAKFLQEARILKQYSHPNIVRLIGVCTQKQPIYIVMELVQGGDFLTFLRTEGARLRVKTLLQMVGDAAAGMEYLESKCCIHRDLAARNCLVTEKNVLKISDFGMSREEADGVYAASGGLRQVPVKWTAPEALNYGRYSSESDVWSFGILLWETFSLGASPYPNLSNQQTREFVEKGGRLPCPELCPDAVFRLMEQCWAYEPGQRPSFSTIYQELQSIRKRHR
T7 sequence (Q9P286 449-700 limits assumed): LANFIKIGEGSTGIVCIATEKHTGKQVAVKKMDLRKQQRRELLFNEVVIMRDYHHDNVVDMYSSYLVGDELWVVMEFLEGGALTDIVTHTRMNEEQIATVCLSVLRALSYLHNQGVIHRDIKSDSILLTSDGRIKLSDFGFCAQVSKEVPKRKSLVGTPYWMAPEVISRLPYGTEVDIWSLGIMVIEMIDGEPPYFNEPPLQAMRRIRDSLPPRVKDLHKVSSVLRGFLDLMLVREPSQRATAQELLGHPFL
T11 sequence (O96017 220-486 limits assumed): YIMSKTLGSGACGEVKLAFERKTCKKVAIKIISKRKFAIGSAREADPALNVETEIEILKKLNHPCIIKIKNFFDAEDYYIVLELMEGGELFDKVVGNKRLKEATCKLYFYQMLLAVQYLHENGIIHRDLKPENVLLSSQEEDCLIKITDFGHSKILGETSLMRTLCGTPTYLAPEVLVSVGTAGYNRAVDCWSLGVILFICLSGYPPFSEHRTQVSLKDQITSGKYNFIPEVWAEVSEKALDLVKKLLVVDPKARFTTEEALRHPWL
T12 sequence (Q9Y243 122-479): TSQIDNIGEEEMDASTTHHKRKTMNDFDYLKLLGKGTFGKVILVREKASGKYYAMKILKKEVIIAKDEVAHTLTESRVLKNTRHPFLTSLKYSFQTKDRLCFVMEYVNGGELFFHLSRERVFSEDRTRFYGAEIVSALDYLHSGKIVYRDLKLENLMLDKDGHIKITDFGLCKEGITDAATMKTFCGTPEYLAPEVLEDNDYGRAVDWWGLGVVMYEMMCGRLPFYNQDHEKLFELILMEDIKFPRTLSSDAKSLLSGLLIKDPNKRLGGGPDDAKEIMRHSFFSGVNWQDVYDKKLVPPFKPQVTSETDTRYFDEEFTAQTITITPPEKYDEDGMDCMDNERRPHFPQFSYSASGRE
T15 sequence (Q14289 425-683 limits assumed): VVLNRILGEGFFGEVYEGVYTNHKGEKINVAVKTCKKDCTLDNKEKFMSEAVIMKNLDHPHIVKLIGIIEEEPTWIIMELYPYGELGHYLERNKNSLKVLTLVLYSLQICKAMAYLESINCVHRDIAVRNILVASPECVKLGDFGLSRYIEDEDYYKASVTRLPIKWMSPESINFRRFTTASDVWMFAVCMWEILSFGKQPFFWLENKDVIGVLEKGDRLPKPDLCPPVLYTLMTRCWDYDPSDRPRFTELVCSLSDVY

For Nc1ncnc2c1ncn2[C@@H]1O[C@H](COP(=O)(O)OP(=O)(O)OP(=O)(O)O)[C@@H](O)[C@H]1O [ATP], the Km (FES Catalytic Domain+SH2 [1]) was 53 ± 13 µM, the Km [2] was 226 ± 33 µM and the Km [3] was 66 ± 2 µM. For the same molecule, the Km (DMPK Catalytic Domain [4]) was 470 ± 69 µM, the Km (STK3 Catalytic Domain [5]) was 140 ± 12 µM and the Km (CDK2 + Cyclin E [6]) was 145 ± 4 µM. The Km (PAK7 Catalytic Domain [7]) was 5 ± 0.4 µM, the Km (FES Catalytic Domain [8]) was 49 ± 11 µM and the Km [9] was 11 ± 1 µM. It also gave a Km (PAK4 Catalytic Domain [10]) of 11 ± 1 µM, a Km (CHK2 Catalytic Domain [11]) of 130 ± 13 µM and a Km (AKT3 Catalytic Domain [12]) of 564 ± 36 µM. The Km (CDK2 + Cyclin A [13]) was 238 ± 12 µM and the Km (SRC Catalytic Domain [14]) was 134 ± 16 µM.

c1cc(-c2cnn3cc(-c4ccc(OCCN5CCCCC5)cc4)cnc23)ccn1 [AMPK Inhibitor, Compound C] was tested, and the “Melting temperature (Tm) shift” value (CHK2 Catalytic Domain [15]) was 1.1 degrees Celcius, the “Melting temperature (Tm) shift” value (CDK2 + Cyclin E [16]) was 0.5 degrees Celcius and the “Melting temperature (Tm) shift” value (PAK4 Catalytic Domain [17]) was 0.7 degrees Celcius. The “Melting temperature (Tm) shift” value (AKT3 Catalytic Domain [18]) was 0.3 degrees Celcius, the “Melting temperature (Tm) shift” value [19] was 0.4 degrees Celcius and the “Melting temperature (Tm) shift” value (DMPK Catalytic Domain [20]) was 1.5 degrees Celcius. For the same molecule, the “Melting temperature (Tm) shift” value (CDK2 + Cyclin A [21]) was 1.0 degrees Celcius, the “Melting temperature (Tm) shift” value (FES Catalytic Domain+SH2 [22]) was 0.4 degrees Celcius and the “Melting temperature (Tm) shift” value (SRC Catalytic Domain [23]) was 0.5 degrees Celcius. For the same molecule, the “Melting temperature (Tm) shift” value (STK3 Catalytic Domain [24]) was 0.3 degrees Celcius, the “Melting temperature (Tm) shift” value (PAK7 Catalytic Domain [25]) was 0.5 degrees Celcius and the “Melting temperature (Tm) shift” value (FAK2 Catalytic Domain) was 0.1 degrees Celcius. For the same molecule, the “Melting temperature (Tm) shift” value [26] was 0.6 degrees Celcius, the “Melting temperature (Tm) shift” value (FES Catalytic Domain [27]) was 1.2 degrees Celcius and the “Melting temperature (Tm) shift” value [28] was 0.8 degrees Celcius.
